Results on 8 compounds are retold here after patent US9637518B2, “IAP antagonists” (BRISTOL-MYERS SQUIBB COMPANY, priority 2014, dated 2017).

The target of one assay is T1, His-BIR3 (241-356, XIAP) (Homo sapiens, UniProt P98170).
T1 construct: His-BIR3 (241-356, XIAP)
Description: XIAP-BIR3/SMAC Homogeneous Time Resolved Fluorescence (HTRF) Assay. The assay is classed as binding. As to conditions: 1 nM N-His-BIR3, 5 nM fluorescein labeled SMAC peptide. How it is done:
A. XIAP-BIR3/SMAC Homogeneous Time Resolved Fluorescence (HTRF) Assay
Assays were performed in black, flat-bottom, 384-well plates. The final assay volume was 50 μL prepared from additions of His-BIR3 (241-356, XIAP), fluorescein labeled SMAC peptide, and test compounds in assay buffer consisting of 20 mM Sodium Phosphate, 1 mM EDTA, 50 mM NaCl, 50 μg/ml BSA, and 0.05% PLURONIC® F68. The reaction was incubated at room temperature for 60 minutes, following which 10 μl of mouse anti-6×His-terbium labeled Fab (Medarex, Cis-bio) was added to the reaction (40 μl) for an additional 30 minute incubation. The HTRF signal, ratio of fluorescence intensities at emission wavelengths for fluorescein acceptor (520 nm) and terbium donor (615 nm), the 520/615 ratio, generated by the reaction was then measured on the Envision Plate Reader Inhibition data were calculated from the 520/615 ratio generated by the no protein control reactions for 100% inhibition and vehicle-only reactions for 0% inhibition. The final concentration of reagents in the assay was 1 nM N-His-BIR3 (241-356, XIAP), 5 nM fluorescein labeled SMAC peptide, 0.25 nM anti-His-Tb-Fab, and 0.1% DMSO. Dose response curves were generated to determine the concentration required for inhibiting 50% of the HTRF signal (IC50). Compounds were dissolved at 3 mM in dimethylsulfoxide (DMSO) and evaluated at eleven serially diluted concentrations. IC50 and Ki values were derived by non-linear regression analysis.
For orientation: TR-FRET usually uses a lanthanide donor and a delayed reading to cut background.

Assay [1] has as its target T2, His-BIR2-3 (125-356, C202A/C213G, XIAP) (Homo sapiens, UniProt P98170, C202A/C213G).
T2 construct: His-BIR2-3 (125-356, C202A/C213G, XIAP)
Description: XIAP-BIR2-3 dimeric SMAC Peptide Homogeneous Time Resolved Fluorescence (HTRF) Assay. The assay is classed as binding. As to conditions: 0.5 nM N-His-BIR2-3, 20 nM fluorescein labeled dimeric SMAC peptide. The protocol: B. XIAP-BIR2-3 dimeric SMAC Peptide Homogeneous Time Resolved Fluorescence (HTRF) Assay
Assays were performed in black, flat-bottom, 384-well plates. The final assay volume was 50 μL prepared from additions of His-BIR2-3 (125-356, C202A/C213G, XIAP), fluorescein labeled dimeric SMAC peptide, and test compounds in assay buffer consisting of 20 mM Sodium Phosphate, 1 mM EDTA, 50 mM NaCl, 50 μg/ml BSA, and 0.05% PLURONIC® F68. The reaction was incubated at room temperature for 60 minutes, following which 10 μl of mouse anti-6×His-Tb IgG (Medarex, Cis-bio) was added to the reaction (40 μl) for an additional 30 minute incubation. The HTRF signal, ratio of fluorescence intensities at emission wavelengths for fluorescein acceptor (520 nm) and terbium donor (615 nm), the 520/615 ratio, generated by the reaction was then measured on the Envision Plate Reader. Inhibition data were calculated from the 520/615 ratio generated by the no protein control reactions for 100% inhibition and vehicle-only reactions for 0% inhibition. The final concentration of reagents in the assay was 0.5 nM N-His-BIR2-3(125-356, C202A/C213G, XIAP), 20 nM fluorescein labeled dimeric SMAC peptide, 0.25 nM anti-His-Tb-Fab, and 0.1% DMSO. Dose response curves were generated to determine the concentration required for inhibiting 50% of the HTRF signal (IC50). Compounds were dissolved at 3 mM in dimethylsulfoxide (DMSO) and evaluated at eleven serially diluted concentrations. IC50 and Ki values were derived by non-linear regression analysis.

The structures appear in SMILES notation.

T2 sequence (P98170 125-356 C202A/C213G): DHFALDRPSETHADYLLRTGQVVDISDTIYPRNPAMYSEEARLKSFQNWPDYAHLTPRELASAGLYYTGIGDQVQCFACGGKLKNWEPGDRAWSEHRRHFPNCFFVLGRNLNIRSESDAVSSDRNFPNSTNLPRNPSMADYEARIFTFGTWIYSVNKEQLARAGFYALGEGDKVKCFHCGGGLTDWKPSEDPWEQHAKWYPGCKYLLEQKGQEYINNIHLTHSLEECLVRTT
T1 sequence (P98170 241-356): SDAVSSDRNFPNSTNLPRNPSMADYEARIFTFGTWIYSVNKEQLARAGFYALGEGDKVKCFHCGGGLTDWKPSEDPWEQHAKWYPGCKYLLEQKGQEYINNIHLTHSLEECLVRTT

For the compound `CN[C@@H](C)C(=O)N[C@H](C(=O)N1C[C@@H](c2ccc(C[C@H](NC(=O)[C@@H](NC(=O)[C@H](C)NC)C(C)(C)SCC(=O)N(C)C[C@@H](O)CO)C(=O)N[C@@H]3CCCc4ccccc43)cc2)C[C@H]1C(=O)N[C@@H]1CCCc2ccccc21)C(C)(C)C` [Example 1, (2S,4R)-4-(4-((S)-2-((R)-3-((2-(((R)-2,3-Dihydroxypropyl)(methyl)amino)-2-oxoethyl)thio)-3-methyl-2-((S)-2-(methylamino)propanamido)butanamido)-3-oxo-3-(((R)-1,2,3,4-tetrahydronaphthalen-1-yl)amino)propyl)phenyl)-1-((S)-3,3-dimethyl-2-((S)-2-(methylamino)propanamido)butanoyl)-N—((R)-1,2,3,4-tetrahydronaphthalen-1-yl)pyrrolidine-2-carboxamide], the IC50 (usually the concentration that inhibits the measured activity by half) on His-BIR3 (241-356, XIAP) came to 1.7 nM; in assay [1], 12.3 nM.
`CN[C@@H](C)C(=O)N[C@H](C(=O)N1C[C@@H](c2ccc(C[C@H](NC(=O)[C@@H](NC(=O)[C@H](C)NC)C(C)(C)SCCO)C(=O)N[C@@H]3CCCc4ccccc43)cc2)C[C@H]1C(=O)N[C@@H]1CCCc2ccccc21)C(C)(C)C` [Example 2, (2S,4R)-1-((S)-3,3-Dimethyl-2-((S)-2-(methylamino)propanamido)butanoyl)-4-(4-((S)-2-((R)-3-((2-hydroxyethyl)thio)-3-methyl-2-((S)-2-(methylamino)propanamido)butanamido)-3-oxo-3-(((R)-1,2,3,4-tetrahydronaphthalen-1-yl)amino)propyl)phenyl)-N—((R)-1,2,3,4-tetrahydronaphthalen-1-yl)pyrrolidine-2-carboxamide]: the IC50 was 1.7 nM at His-BIR3 (241-356, XIAP) and 7 nM in assay [1].
Taken in the same sequence, the figures for `CN[C@@H](C)C(=O)N[C@H](C(=O)N[C@@H](Cc1ccc([C@H]2C[C@@H](C(=O)N[C@@H]3CCCc4ccccc43)N(C(=O)[C@@H](NC(=O)[C@H](C)NC)C(C)(C)C)C2)cc1)C(=O)N[C@@H]1CCCc2ccccc21)C(C)(C)C` [Example 3, (2S,4R)-4-(4-((S)-2-((S)-3,3-Dimethyl-2-((S)-2-(methylamino)propanamido)butanamido)-3-oxo-3-(((R)-1,2,3,4-tetrahydronaphthalen-1-yl)amino)propyl)phenyl)-1-((S)-3,3-dimethyl-2-((S)-2-(methylamino)propanamido)butanoyl)-N—((R)-1,2,3,4-tetrahydronaphthalen-1-yl)pyrrolidine-2-carboxamide] were 1.1 nM and 6.8 nM.
The matching figures for `CN[C@@H](C)C(=O)N[C@H](C(=O)N1C[C@@H](NC(=O)c2ccc(C(=O)Nc3ccc(C[C@H](NC(=O)[C@@H](NC(=O)[C@H](C)NC)C(C)(C)SC)C(=O)N[C@@H]4CCCc5ccccc54)cc3)cc2)C[C@H]1C(=O)N[C@@H]1CCCc2ccccc21)C(C)(C)C` [Example 4, N^1-((3S,5S)-1-((S)-3,3-Dimethyl-2-((S)-2-(methylamino)propanamido)butanoyl)-5-(((R)-1,2,3,4-tetrahydronaphthalen-1-yl)carbamoyl)pyrrolidin-3-yl)-N^4-(4-((S)-2-((R)-3-methyl-2-((S)-2-(methylamino)propanamido)-3-(methylthio)butanamido)-3-oxo-3-(((R)-1,2,3,4-tetrahydronaphthalen-1-yl)amino)propyl)phenyl)terephthalamide]: 13.8 nM and 2.9 nM.
The matching figures for `CN[C@@H](C)C(=O)N[C@H](C(=O)N[C@@H](Cc1ccc(C(=O)N[C@H]2C[C@@H](C(=O)N[C@@H]3CCCc4ccccc43)N(C(=O)[C@@H](NC(=O)[C@H](C)NC)C(C)(C)C)C2)cc1)C(=O)N[C@@H]1CCCc2ccccc21)C(C)(C)C` [Example 5, (2S,4S)-4-(4-((S)-2-((S)-3,3-Dimethyl-2-((S)-2-(methylamino)propanamido)butanamido)-3-oxo-3-(((R)-1,2,3,4-tetrahydronaphthalen-1-yl)amino)propyl)benzamido)-1-((S)-3,3-dimethyl-2-((S)-2-(methylamino)propanamido)butanoyl)-N—((R)-1,2,3,4-tetrahydronaphthalen-1-yl)pyrrolidine-2-carboxamide]: 9 nM and 13.7 nM.
For the compound `CN[C@@H](C)C(=O)N[C@H](C(=O)N1C[C@@H](c2ccc(C[C@H](NC(=O)[C@@H](NC(=O)[C@H](C)NC)C(C)(C)SCC(=O)NC(CO)CO)C(=O)NC3CCCc4ccccc43)cc2)C[C@H]1C(=O)NC1CCCc2ccccc21)C(C)(C)C` (stereo partly shown) [Example 6], the IC50 was found to be 1.4 nM against His-BIR3 (241-356, XIAP) and 8.1 nM in assay [1].
Turning to `CN[C@@H](C)C(=O)N[C@H](C(=O)N[C@@H](Cc1ccc([C@H]2C[C@@H](C(=O)N[C@@H](COC)c3ccccc3)N(C(=O)[C@@H](NC(=O)[C@H](C)NC)C(C)(C)C)C2)cc1)C(=O)N[C@@H]1CCCc2ccccc21)C(C)(C)C` [Example 7, (2S,4R)-4-(4-((S)-2-((S)-3,3-Dimethyl-2-((S)-2-(methylamino)propanamido)butanamido)-3-oxo-3-(((R)-1,2,3,4-tetrahydronaphthalen-1-yl)amino)propyl)phenyl)-1-((S)-3,3-dimethyl-2-((S)-2-(methylamino)propanamido)butanoyl)-N-((R)-2-methoxy-1-phenylethyl)pyrrolidine-2-carboxamide], the IC50 turned out to be 48.4 nM against His-BIR3 (241-356, XIAP) and 140 nM in assay [1].
For `CN[C@@H](C)C(=O)N[C@H](C(=O)N[C@@H](Cc1ccc(NC(=O)c2ccc(C(=O)N[C@H]3C[C@@H](C(=O)N[C@@H]4CCCc5ccccc54)N(C(=O)[C@@H](NC(=O)[C@H](C)NC)C(C)(C)C)C3)cc2)cc1)C(=O)N[C@@H]1CCCc2ccccc21)C1CCCCC1` [Example 8, N^1-(4-((S)-2-((S)-2-Cyclohexyl-2-((S)-2-(methylamino)propanamido)acetamido)-3-oxo-3-(((R)-1,2,3,4-tetrahydronaphthalen-1-yl)amino)propyl)phenyl)-N^4-((3S,5S)-1-((S)-3,3-dimethyl-2-((S)-2-(methylamino)propanamido)butanoyl)-5-(((R)-1,2,3,4-tetrahydronaphthalen-1-yl)carbamoyl)pyrrolidin-3-yl)terephthalamide], the IC50 at His-BIR3 (241-356, XIAP) is 119 nM; in assay [1], 9.5 nM.
